# Results from US7910751B2, “Heterocyclidene acetamide derivative” (Mochida Pharmaceutical Co., Ltd., priority 2005, dated 2011).
# Molecular target: T1, human TRPV1 (Homo sapiens, UniProt Q8NER1)
# T1 construct: expressed in transfected cells; host or cells: CHO-K1
# Assay: Measurement of capsaicin-induced Ca influx in human TRPV1 transformed CHO cell line using FDSS-6000
# Assay type: cell-based
# Details: concentration at which the capsaicin concentration-reaction curve is shifted two times to the right, human TRPV1 transformed CHO cells
# Description: [Measurement of Capsaicin-Induced Ca Influx in Human TRPV1 Transformed CHO Cell Line]
# (1) Establishment of Human TRPV1 Transformed CHO Cell Line
# Human vanilloid receptor 1 (hTRPV1) cDNA was cloned from a human brain. The cloned hTRPV1 cDNA was incorporated in a pCAGGS vector. The gene of the vector was introduced to a CHO-K1 cell line, thus performing transformation. Clones obtained by limiting dilution were stimulated with capsaicin. Clones with a high responsiveness were selected using an increase in the Ca concentration as an indicator. The selected clones were used for the following experiment.
# (2) Measurement of Ca Influx Using FDSS-6000
# The human TRPV1 transformed CHO cells were seeded in a 96-well plate (with black walls and transparent bottoms, manufactured by Greiner) at a density of 40,000 cells per well. The cells were cultured at 37° C. in 5% CO2 for one night. A loading solution of FLIPR Calcium 3 assay kit (manufactured by Molecular Devices Corporation) containing 2.5 mmol/L of probenecid was then added to each of the wells in the same amount as the culture medium, and the cells were cultured at 37° C. for 60 minutes. After the cells were stimulated with capsaicin (1 nmol/L to 1 μmol/L), the change in the Ca concentration in the cells was measured using FDSS-6000 (λex: 480 nm, λem: 540 nm, manufactured by Hamamatsu Photonics K.K.) for three minutes. The integrated values of the increase rate of the Ca concentration in the cells were calculated for a group treated with the compounds of the present invention and a group treated with a medium, thus allowing capsaicin concentration-reaction curves to be obtained. A concentration (A2 value) of each of the compounds of the present invention, at which the capsaicin concentration-reaction curve obtained when the cells were treated with the medium was shifted two times to the right side, was calculated. The inhibiting effects of the test compounds were compared using this value as an indicator.
# In the case where a compound of the present invention is an agonist, when the cells are treated with the compound of the present invention prior to the capsaicin stimulation, the Ca influx is observed. In Table 1, compounds of the present invention having an A2 value of less than 100 nM are represented by A, and compounds having an A2 value of 100 nM or more are represented by B. When the A2 values of the compounds of the present invention were measured by the above-described method, the compounds have an intensity of 1 μM or less.
# T1 sequence (Q8NER1 whole entry): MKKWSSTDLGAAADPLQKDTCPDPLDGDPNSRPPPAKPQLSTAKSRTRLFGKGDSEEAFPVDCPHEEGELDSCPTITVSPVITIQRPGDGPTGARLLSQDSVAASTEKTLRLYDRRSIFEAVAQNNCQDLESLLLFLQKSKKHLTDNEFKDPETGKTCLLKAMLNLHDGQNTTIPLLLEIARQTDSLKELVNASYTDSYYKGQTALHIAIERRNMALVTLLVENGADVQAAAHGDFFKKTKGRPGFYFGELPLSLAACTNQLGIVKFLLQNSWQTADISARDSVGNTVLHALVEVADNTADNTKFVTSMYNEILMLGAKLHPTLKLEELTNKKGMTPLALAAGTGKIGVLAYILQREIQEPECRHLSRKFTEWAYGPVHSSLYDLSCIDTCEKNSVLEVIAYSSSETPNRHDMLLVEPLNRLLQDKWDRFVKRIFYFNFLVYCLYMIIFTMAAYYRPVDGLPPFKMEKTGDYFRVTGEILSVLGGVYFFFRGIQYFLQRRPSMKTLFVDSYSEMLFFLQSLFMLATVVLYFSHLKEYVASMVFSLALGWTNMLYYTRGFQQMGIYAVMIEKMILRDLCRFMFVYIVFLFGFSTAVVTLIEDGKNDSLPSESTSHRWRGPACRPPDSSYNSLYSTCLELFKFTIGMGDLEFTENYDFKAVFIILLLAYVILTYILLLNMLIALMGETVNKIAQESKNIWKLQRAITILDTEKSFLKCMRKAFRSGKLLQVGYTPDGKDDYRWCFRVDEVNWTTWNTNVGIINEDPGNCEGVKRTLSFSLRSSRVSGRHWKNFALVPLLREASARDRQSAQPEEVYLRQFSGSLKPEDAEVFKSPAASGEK
row,Compound,A2 VALUE
1,"O=C(/C=C1\CCCOc2nc(C(F)(F)F)ccc21)Nc1cccc2c1CC(O)CC2 (stereo not shown) [Example 239, (E)-2-(8-trifluoromethyl-2,3,4,5-tetrahydrooxepino[2,3-b]pyridin-5-ylidene)-N-(7-hydroxy-5,6,7,8-tetrahydronaphthalen-1-yl)acetamide]",A (compounds of the present invention having an A2 value of less than 100 nM are represented by A)
2,"O=C(/C=C1\CCCOc2cc(C(F)(F)F)ccc21)Nc1cccc2c1CCC2O (stereo not shown) [Example 160, (E)-2-(8-trifluoromethyl-3,4-dihydrobenzo[b]oxepin-5(2H)-ylidene)-N-(indan-1-ol-4-yl)acetamide]",A (compounds of the present invention having an A2 value of less than 100 nM are represented by A)
3,"CC1(C)C/C(=C\C(=O)Nc2cccc3c2CC(O)CC3)c2ccc(C(F)(F)F)cc2O1 (stereo not shown) [Example 241, (E)-2-(7-trifluoromethyl-2,2-dimethylchroman-4-ylidene)-N-(7-hydroxy-5,6,7,8-tetrahydronaphthalen-1-yl)acetamide]",A (compounds of the present invention having an A2 value of less than 100 nM are represented by A)
4,"O=C(/C=C1\CCN(C(=O)CC(F)(F)F)c2cc(C(F)(F)F)ccc21)Nc1cccc2c1CC(O)CC2 (stereo not shown) [Example 92, (E)-2-(1-(3,3,3-trifluoropropanoyl)-7-trifluoromethyl-2,3-dihydroquinolin-4(1H)-ylidene)-N-(7-hydroxy-5,6,7,8-tetrahydronaphthalen-1-yl)acetamide]",A (compounds of the present invention having an A2 value of less than 100 nM are represented by A)
5,"O=C(/C=C1\CCCOc2cc(C(F)(F)F)ccc21)Nc1ccc2c(c1)NC(=O)CC2 [Example 133, (E)-2-(8-trifluoromethyl-3,4-dihydrobenzo[b]oxepin-5(2H)-ylidene)-N-(3,4-dihydro-1H-quinolin-2-on-7-yl)acetamide]",A (compounds of the present invention having an A2 value of less than 100 nM are represented by A)
6,"CS(=O)(=O)O.O=C(/C=C1\CCCOc2cc(C(F)(F)F)ccc21)Nc1ccc2cccnc2c1 [Example 127, (E)-2-(8-trifluoromethyl-3,4-dihydrobenzo[b]oxepin-5(2H)-ylidene)-N-(quinolin-7-yl)acetamide methanesulfonate]",A (compounds of the present invention having an A2 value of less than 100 nM are represented by A)
7,"O=C(/C=C1\CCCOc2cc(C(F)(F)F)ccc21)Nc1ccccc1CCO [Example 60, (E)-2-(8-trifluoromethyl-3,4-dihydrobenzo[b]oxepin-5(2H)-ylidene)-N-((2-hydroxyethyl)phenyl-1-yl)acetamide]",A (compounds of the present invention having an A2 value of less than 100 nM are represented by A)
8,"O=C(/C=C1\CCOc2cc(C(F)(F)F)ccc21)Nc1ccc2cccnc2c1 [Example 8, (E)-2-(7-trifluoromethyl-chroman-4-ylidene)-N-(quinolin-7-yl)acetamide]",A (compounds of the present invention having an A2 value of less than 100 nM are represented by A)
9,"O=C(/C=C1\CCOc2ccccc21)Nc1cccc2cnccc12 [Example 2, (E)-2-(chroman-4-ylidene)-N-(isoquinolin-5-yl)acetamide]",B (compounds having an A2 value of 100 nM or more are represented by B)
10,"O=C(/C=C1\CCN(C(=O)C2CCC2)c2cc(C(F)(F)F)ccc21)Nc1ccc2cccnc2c1 [Example 75, (E)-2-(1-cyclobutanecarbonyl-7-trifluoromethyl-2,3-dihydroquinolin-4(1H)-ylidene)-N-(quinolin-7-yl)acetamide]",A (compounds of the present invention having an A2 value of less than 100 nM are represented by A)
11,"O=C(/C=C1\CCOc2cc(C(F)(F)F)ccc21)Nc1cccc2ccc(O)cc12 [Example 120, (E)-N-(7-hydroxynaphthalen-1-yl)-2-(7-trifluoromethyl-chroman-4-ylidene)acetamide]",A (compounds of the present invention having an A2 value of less than 100 nM are represented by A)
12,"CCCCC(=O)N1CC/C(=C\C(=O)Nc2ccc3cccnc3c2)c2ccc(C(F)(F)F)cc21 [Example 50, (E)-2-(7-trifluoromethyl-2,3-dihydro-1-pentanoylquinolin-4(1H)-ylidene)-N-(quinolin-7-yl)acetamide]",A (compounds of the present invention having an A2 value of less than 100 nM are represented by A)
13,"O=C(/C=C1\CCCOc2cc(C(F)(F)F)ccc21)Nc1cccc2cc(O)ccc12 [Example 126, (E)-N-(6-hydroxynaphthalen-1-yl)-2-(8-trifluoromethyl-3,4-dihydrobenzo[b]oxepin-5(2H)-ylidene)acetamide]",A (compounds of the present invention having an A2 value of less than 100 nM are represented by A)
14,"Cn1nc(NC(=O)/C=C2\CCCOc3cc(C(F)(F)F)ccc32)c2cccnc21 [Example 41, (E)-2-(8-trifluoromethyl-3,4-dihydrobenzo[b]oxepin-5(2H)-ylidene)-N-(1-methyl-1H-pyrazolo[3,4-b]pyridin-3-yl)acetamide]",B (compounds having an A2 value of 100 nM or more are represented by B)
15,"O=C(/C=C1\CCCOc2cc(C(F)(F)F)ccc21)NCCc1cccc2c1CC(O)CC2 (stereo not shown) [Example 226, (E)-2-(8-trifluoromethyl-3,4-dihydrobenzo[b]oxepin-5(2H)-ylidene)-N-(2-(7-hydroxy-5,6,7,8-tetrahydronaphthalen-1-yl)ethyl)acetamide]",A (compounds of the present invention having an A2 value of less than 100 nM are represented by A)
16,"COc1cc(NC(=O)/C=C2\CCCOc3cc(C(F)(F)F)ccc32)cc(C(F)(F)F)c1 [Example 135, (E)-2-(8-trifluoromethyl-3,4-dihydrobenzo[b]oxepin-5(2H)-ylidene)-N-(3-methoxy-5-(trifluoromethyl)phenyl)acetamide]",A (compounds of the present invention having an A2 value of less than 100 nM are represented by A)
17,"O=C(/C=C1\CCCOc2cc(C(F)(F)F)ccc21)Nc1ccc2c(c1)C(O)CC2 (stereo not shown) [Example 175, (E)-2-(8-trifluoromethyl-3,4-dihydrobenzo[b]oxepin-5(2H)-ylidene)-N-(indan-1-ol-6-yl)acetamide]",A (compounds of the present invention having an A2 value of less than 100 nM are represented by A)
18,"O=C(/C=C1\CCCOc2cc(C(F)(F)F)ccc21)Nc1ccc2c(c1)N(CCO)C(=O)CO2 [Example 234, (E)-2-(8-trifluoromethyl-3,4-dihydrobenzo[b]oxepin-5(2H)-ylidene)-N-(4-(2-hydroxyethyl)-2H-1,4-benzoxazin-3(4H)-on-6-yl)acetamide]",A (compounds of the present invention having an A2 value of less than 100 nM are represented by A)
19,"O=C(/C=C1\CCCOc2cc(C(F)(F)F)ccc21)NC(c1ccccc1)c1ccccn1 (stereo not shown) [Example 31, (E)-2-(8-trifluoromethyl-3,4-dihydrobenzo[b]oxepin-5(2H)-ylidene)-N-(phenyl(pyridin-2-yl)methyl)acetamide]",B (compounds having an A2 value of 100 nM or more are represented by B)
20,"O=C(/C=C1\CCCOc2cc(C(F)(F)F)ccc21)Nc1ccc(Oc2ccccc2)nc1 [Example 22, (E)-2-(8-trifluoromethyl-3,4-dihydrobenzo[b]oxepin-5(2H)-ylidene)-N-(6-phenoxypyridin-3-yl)acetamide]",B (compounds having an A2 value of 100 nM or more are represented by B)
21,"CN1CCCc2ccc(NC(=O)/C=C3\CCCOc4cc(C(F)(F)F)ccc43)cc21 [Example 17, (E)-2-(8-trifluoromethyl-3,4-dihydrobenzo[b]oxepin-5(2H)-ylidene)-N-(1,2,3,4-tetrahydro-1-methylquinolin-7-yl)acetamide]",A (compounds of the present invention having an A2 value of less than 100 nM are represented by A)
22,"O=C(/C=C1\CCOc2cc(Cl)ccc21)Nc1cccc2c1CC(O)CC2 (stereo not shown) [Example 208, (E)-2-(7-chloro-chroman-4-ylidene)-N-(7-hydroxy-5,6,7,8-tetrahydronaphthalen-1-yl)acetamide]",A (compounds of the present invention having an A2 value of less than 100 nM are represented by A)
